# Measured values: ChEMBL document CHEMBL3885881, “DrugMatrix”
# Species on record: Rattus norvegicus
# Assay: DrugMatrix - Regimen: Daily Repeat
# Type: toxicity, organism-based, Sprague-Dawley
# Parameters: regimen Daily Repeat, gender Male, age 6-8 weeks
# Details: in vivo, po, 47 mg/kg, route oral GAVAGE, dose level Low, […]; for ABSOLUTE BASOPHIL / ABSOLUTE EOSINOPHIL / ABSOLUTE LYMPHOCYTE / ABSOLUTE MONOCYTE / ABSOLUTE SEGMENTED NEUTROPHIL / BASOPHIL / EOSINOPHIL / ERYTHROCYTE COUNT / HEMATOCRIT / HEMOGLOBIN / LEUKOCYTE COUNT / LYMPHOCYTE / MEAN CORPUSCULAR HEMOGLOBIN / MEAN CORPUSCULAR HEMOGLOBIN CONCENTRATION / MEAN CORPUSCULAR VOLUME / MONOCYTE / NEUTROPHIL / NUCLEATED RED BLOOD CELLS / PLATELET COUNT: tissue Blood; for ALANINE AMINOTRANSFERASE / ALBUMIN / ALKALINE PHOSPHATASE / ASPARTATE AMINOTRANSFERASE / BLOOD UREA NITROGEN / CARBON DIOXIDE / CHLORIDE / CHOLESTEROL / CREATINE PHOSPHOKINASE / CREATININE / GLUCOSE / LACTATE DEHYDROGENASE / LIPASE / PHOSPHORUS / POTASSIUM / SODIUM / TOTAL BILIRUBIN / TOTAL PROTEIN / URIC ACID: tissue Plasma
structure (smiles),measurement,setting,value
Cc1cn([C@H]2C[C@H](N=[N+]=[N-])[C@@H](CO)O2)c(=O)[nH]c1=O [ZIDOVUDINE],ABSOLUTE BASOPHIL,"72 h, time 3 day",0 CELLS/uL
same,ABSOLUTE EOSINOPHIL,"72 h, time 3 day",0 CELLS/uL
same,ABSOLUTE LYMPHOCYTE,"72 h, time 3 day",11829.67 CELLS/uL
same,ABSOLUTE MONOCYTE,"72 h, time 3 day",82 CELLS/uL
same,ABSOLUTE SEGMENTED NEUTROPHIL,"72 h, time 3 day",955 CELLS/uL
same,BASOPHIL,"72 h, time 3 day",0%
same,EOSINOPHIL,"72 h, time 3 day",0%
same,ERYTHROCYTE COUNT,"72 h, time 3 day",5.26 x10E6/uL
same,HEMATOCRIT,"72 h, time 3 day",33.23%
same,HEMOGLOBIN,"72 h, time 3 day",13.43 G/DL
same,LEUKOCYTE COUNT,"72 h, time 3 day",12.87 x10E3/uL
same,LYMPHOCYTE,"72 h, time 3 day",92%
same,MEAN CORPUSCULAR HEMOGLOBIN,"72 h, time 3 day",25.67 pg
same,MEAN CORPUSCULAR HEMOGLOBIN CONCENTRATION,"72 h, time 3 day",40.47 G/DL
same,MEAN CORPUSCULAR VOLUME,"72 h, time 3 day",63.37 fL
same,MONOCYTE,"72 h, time 3 day",0.67%
same,NEUTROPHIL,"72 h, time 3 day",7.33%
same,NUCLEATED RED BLOOD CELLS,"72 h, time 3 day",0 /100WBC
same,PLATELET COUNT,"72 h, time 3 day",1228 x10E3/uL
same,ALANINE AMINOTRANSFERASE,"72 h, time 3 day",73.67 u/L
same,ALBUMIN,"72 h, time 3 day",4.1 G/DL
same,ALKALINE PHOSPHATASE,"72 h, time 3 day",470 u/L
same,ASPARTATE AMINOTRANSFERASE,"72 h, time 3 day",86 u/L
same,BLOOD UREA NITROGEN,"72 h, time 3 day",12 mg/dL
same,CARBON DIOXIDE,"72 h, time 3 day",32.67 mmol/L
same,CHLORIDE,"72 h, time 3 day",102.33 MEQ/L
same,CHOLESTEROL,"72 h, time 3 day",68 mg/dL
same,CREATINE PHOSPHOKINASE,"72 h, time 3 day",377 u/L
same,CREATININE,"72 h, time 3 day",0.14 mg/dL
same,GLUCOSE,"72 h, time 3 day",156.33 mg/dL
same,LACTATE DEHYDROGENASE,"72 h, time 3 day",235.67 u/L
same,LIPASE,"72 h, time 3 day",11.67 u/L
same,PHOSPHORUS,"72 h, time 3 day",10.87 mg/dL
same,POTASSIUM,"72 h, time 3 day",6.46 MEQ/L
same,SODIUM,"72 h, time 3 day",141.6 MEQ/L
same,TOTAL BILIRUBIN,"72 h, time 3 day",0.17 mg/dL
same,TOTAL PROTEIN,"72 h, time 3 day",5.57 G/DL
same,URIC ACID,"72 h, time 3 day",1.57 mg/dL
same,ABSOLUTE BASOPHIL,"120 h, time 5 day",0 CELLS/uL
same,ABSOLUTE EOSINOPHIL,"120 h, time 5 day",0 CELLS/uL
same,ABSOLUTE LYMPHOCYTE,"120 h, time 5 day",15346 CELLS/uL
same,ABSOLUTE MONOCYTE,"120 h, time 5 day",401.67 CELLS/uL
same,ABSOLUTE SEGMENTED NEUTROPHIL,"120 h, time 5 day",2019 CELLS/uL
same,BASOPHIL,"120 h, time 5 day",0%
same,EOSINOPHIL,"120 h, time 5 day",0%
same,ERYTHROCYTE COUNT,"120 h, time 5 day",5.55 x10E6/uL
same,HEMATOCRIT,"120 h, time 5 day",35.13%
same,HEMOGLOBIN,"120 h, time 5 day",14.03 G/DL
same,LEUKOCYTE COUNT,"120 h, time 5 day",17.77 x10E3/uL
same,LYMPHOCYTE,"120 h, time 5 day",86%
same,MEAN CORPUSCULAR HEMOGLOBIN,"120 h, time 5 day",25.3 pg
same,MEAN CORPUSCULAR HEMOGLOBIN CONCENTRATION,"120 h, time 5 day",39.97 G/DL
same,MEAN CORPUSCULAR VOLUME,"120 h, time 5 day",63.37 fL
same,MONOCYTE,"120 h, time 5 day",2.33%
same,NEUTROPHIL,"120 h, time 5 day",11.67%
same,NUCLEATED RED BLOOD CELLS,"120 h, time 5 day",0 /100WBC
same,PLATELET COUNT,"120 h, time 5 day",1138.33 x10E3/uL
same,ALANINE AMINOTRANSFERASE,"120 h, time 5 day",62 u/L
same,ALBUMIN,"120 h, time 5 day",4.3 G/DL
same,ALKALINE PHOSPHATASE,"120 h, time 5 day",450.33 u/L
same,ASPARTATE AMINOTRANSFERASE,"120 h, time 5 day",81.67 u/L
same,BLOOD UREA NITROGEN,"120 h, time 5 day",12.33 mg/dL
same,CARBON DIOXIDE,"120 h, time 5 day",30.67 mmol/L
same,CHLORIDE,"120 h, time 5 day",101 MEQ/L
same,CHOLESTEROL,"120 h, time 5 day",72.67 mg/dL
same,CREATINE PHOSPHOKINASE,"120 h, time 5 day",317 u/L
same,CREATININE,"120 h, time 5 day",0.25 mg/dL
same,GLUCOSE,"120 h, time 5 day",162.33 mg/dL
same,LACTATE DEHYDROGENASE,"120 h, time 5 day",138 u/L
same,LIPASE,"120 h, time 5 day",11 u/L
same,PHOSPHORUS,"120 h, time 5 day",11.9 mg/dL
same,POTASSIUM,"120 h, time 5 day",6.72 MEQ/L
same,SODIUM,"120 h, time 5 day",143.47 MEQ/L
same,TOTAL BILIRUBIN,"120 h, time 5 day",0.2 mg/dL
same,TOTAL PROTEIN,"120 h, time 5 day",5.87 G/DL
same,URIC ACID,"120 h, time 5 day",1.9 mg/dL
